Laboratory results as given in BindingDB's records for doi:10.1016/j.bmcl.2009.07.009 (Konkuk University, 2009).
pIC50: −log10 of the molar value.

What was measured:
[1] = molecular target: T1, Replicase polyprotein 1ab (Severe acute respiratory syndrome coronavirus, UniProt P0C6X7); test: Inhibition of ATPase activity of SARS coronavirus helicase assessed as phosphate release by malachite green assay
[2] = molecular target: T1, Replicase polyprotein 1ab; test: Inhibition of SARS coronavirus helicase assessed as duplex-DNA unwinding by FRET based assay

Compound	pIC50 [1]	pIC50 [2]
O=c1c(O)ccc2oc(CNCc3cccc(Cl)c3)cc(O)c1-2 [2-[(3-Chloro-benzylamino)-methyl]-5,6-dihydroxy-chromen-4-one]	< 4.30	< 4.30
O=c1c(O)ccc2oc(CNCc3ccc(Cl)cc3)cc(O)c1-2 [2-[(4-Chloro-benzylamino)-methyl]-5,6-dihydroxy-chromen-4-one]	< 4.30	< 4.30
N#Cc1cccc(CNCc2cc(O)c3c(=O)c(O)ccc-3o2)c1 [3-{[(5,6-Dihydroxy-4-oxo-4H-chromen-2-ylmethyl)-amino]-methyl}-benzonitrile]	< 4.30	< 4.30
